Source: patent US9216999B2, “Substituted pyrrolo[2,3-h][1,6]naphthyridines and compositions thereof as JAK inhibitors” (priority 2011, dated 2015)
Read-outs that look alike come from different tables or passages of the source.

Key:
Type in all cases: biochemical
JAK1 = JAK1 (Homo sapiens (Human), UniProt P23458); experiment: Enzyme assay (Assay Example^a 1), JAK1; details: ATP 100 μM
JAK2 = JAK2 (Homo sapiens (Human), UniProt O60674); experiment: Enzyme assay (Assay Example^a 1), JAK2; details: ATP 100 μM
JAK3 = JAK3 (Homo sapiens (Human), UniProt P52333); experiment: Enzyme assay (Assay Example^a 1), JAK3
Chain of JAK3 (P52333 whole entry): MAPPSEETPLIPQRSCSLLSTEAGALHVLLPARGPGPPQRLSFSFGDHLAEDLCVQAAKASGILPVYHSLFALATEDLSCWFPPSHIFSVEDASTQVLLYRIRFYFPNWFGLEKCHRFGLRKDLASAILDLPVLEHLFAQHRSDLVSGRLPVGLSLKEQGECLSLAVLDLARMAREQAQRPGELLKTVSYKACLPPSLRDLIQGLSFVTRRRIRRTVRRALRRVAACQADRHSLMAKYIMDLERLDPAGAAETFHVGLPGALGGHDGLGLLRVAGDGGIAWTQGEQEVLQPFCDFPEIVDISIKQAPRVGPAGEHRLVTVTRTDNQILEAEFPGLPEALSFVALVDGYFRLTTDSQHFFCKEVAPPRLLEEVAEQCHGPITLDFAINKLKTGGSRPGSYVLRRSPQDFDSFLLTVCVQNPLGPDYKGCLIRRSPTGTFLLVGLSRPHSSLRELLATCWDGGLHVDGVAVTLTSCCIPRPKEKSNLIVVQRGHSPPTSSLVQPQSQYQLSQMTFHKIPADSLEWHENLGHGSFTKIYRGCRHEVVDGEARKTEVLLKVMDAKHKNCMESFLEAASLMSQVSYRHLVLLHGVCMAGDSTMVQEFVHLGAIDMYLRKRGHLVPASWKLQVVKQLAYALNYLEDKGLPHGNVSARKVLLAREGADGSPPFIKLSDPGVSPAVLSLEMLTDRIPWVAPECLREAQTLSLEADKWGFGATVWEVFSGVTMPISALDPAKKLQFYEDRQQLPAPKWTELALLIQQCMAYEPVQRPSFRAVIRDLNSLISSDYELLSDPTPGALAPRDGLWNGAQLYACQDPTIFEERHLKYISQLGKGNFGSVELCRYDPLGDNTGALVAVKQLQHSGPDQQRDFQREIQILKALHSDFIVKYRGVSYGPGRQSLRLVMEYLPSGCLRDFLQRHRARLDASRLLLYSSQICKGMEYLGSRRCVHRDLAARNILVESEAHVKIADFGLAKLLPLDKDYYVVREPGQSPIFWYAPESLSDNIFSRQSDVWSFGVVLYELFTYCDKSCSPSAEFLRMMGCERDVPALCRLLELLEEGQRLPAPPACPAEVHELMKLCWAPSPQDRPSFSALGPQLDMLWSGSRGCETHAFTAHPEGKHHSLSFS

Tyk2 = Tyk2 (Homo sapiens (Human), UniProt P29597); experiment: Enzyme assay (Assay Example^a 1), Tyk2; details: ATP 100 μM
Chain of Tyk2 (P29597 whole entry): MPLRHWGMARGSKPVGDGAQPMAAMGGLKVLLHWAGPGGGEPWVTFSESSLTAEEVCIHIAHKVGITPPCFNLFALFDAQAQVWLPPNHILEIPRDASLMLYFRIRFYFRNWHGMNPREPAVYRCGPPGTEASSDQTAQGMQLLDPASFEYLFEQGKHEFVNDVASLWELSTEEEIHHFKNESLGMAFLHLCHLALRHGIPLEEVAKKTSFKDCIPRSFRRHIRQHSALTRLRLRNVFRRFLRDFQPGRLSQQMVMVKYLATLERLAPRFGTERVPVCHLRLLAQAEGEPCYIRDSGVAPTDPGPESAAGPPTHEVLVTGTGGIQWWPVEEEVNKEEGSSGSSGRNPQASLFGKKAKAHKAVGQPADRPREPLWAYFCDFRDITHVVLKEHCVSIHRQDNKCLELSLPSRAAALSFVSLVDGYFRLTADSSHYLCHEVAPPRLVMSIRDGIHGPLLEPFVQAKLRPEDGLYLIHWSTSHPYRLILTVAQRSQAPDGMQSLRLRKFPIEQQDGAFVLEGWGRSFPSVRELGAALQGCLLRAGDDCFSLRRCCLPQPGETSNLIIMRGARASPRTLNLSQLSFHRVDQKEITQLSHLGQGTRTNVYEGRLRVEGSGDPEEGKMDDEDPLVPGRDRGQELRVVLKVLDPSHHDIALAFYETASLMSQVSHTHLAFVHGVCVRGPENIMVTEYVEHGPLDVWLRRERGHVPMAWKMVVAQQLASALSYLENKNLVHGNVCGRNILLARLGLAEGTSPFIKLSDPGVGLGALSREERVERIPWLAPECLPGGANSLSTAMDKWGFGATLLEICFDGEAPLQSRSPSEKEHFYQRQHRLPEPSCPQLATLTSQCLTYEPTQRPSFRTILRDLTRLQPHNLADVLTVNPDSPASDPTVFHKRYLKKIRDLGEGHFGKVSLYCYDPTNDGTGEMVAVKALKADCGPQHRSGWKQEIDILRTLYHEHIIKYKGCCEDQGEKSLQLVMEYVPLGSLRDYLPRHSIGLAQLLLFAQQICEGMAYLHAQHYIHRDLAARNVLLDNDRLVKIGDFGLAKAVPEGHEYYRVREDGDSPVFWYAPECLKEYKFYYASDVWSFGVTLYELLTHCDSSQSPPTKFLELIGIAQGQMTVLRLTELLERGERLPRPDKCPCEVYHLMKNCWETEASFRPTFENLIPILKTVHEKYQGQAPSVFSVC

Row | IC50 (JAK3; ATP 100 μM) [µM] | SMILES | IC50 (JAK1) [µM] | IC50 (JAK2) [µM] | IC50 (Tyk2) [µM] | IC50 (JAK1; Table^a 154) [µM] | IC50 (JAK2; Table^a 154) [µM] | IC50 (JAK3; ATP 100 μM, Table^a 154) [µM] | IC50 (Tyk2; Table^a 154) [µM] | IC50 (JAK3) [µM]
1 | 0.54 | N#C/C=C/[C@H]1CC[C@H](c2nnn3cnc4[nH]ccc4c23)CC1 [compound 440, (E)-3-[trans-4-(7H-Pyrrolo[3,2-e][1,2,3]triazolo[1,5-c]pyrimidin-1-yl)cyclohexyl]acrylonitrile] | 0.0053 | 0.031 | 0.14 |  |  |  |  | 
2 |  | Fc1cc(CN2CCC(c3nnn4cnc5[nH]ccc5c34)CC2)ccc1C(F)(F)F [compound 167, 1-{1-[3-fluoro-4-(trifluoromethyl)benzyl]piperidin-4-yl}-7H-pyrrolo[3,2-e][1,2,3]triazolo[1,5-c]pyrimidine] |  |  |  | 0.0031 | 0.03 | 0.17 | 0.98 | 
3 |  | Clc1cnccc1CN1CCC(c2nnn3cnc4[nH]ccc4c23)CC1 [compound 163, 1-{1-[(3-chloropyridin-4-yl)methyl]piperidin-4-yl}-7H-pyrrolo[3,2-e][1,2,3]triazolo[1,5-c]pyrimidine] |  |  |  | 0.01 | 0.034 | 0.41 | 0.31 | 
4 | 0.24 | Clc1ccc(C2(NC[C@H]3CC[C@H](c4nnn5cnc6[nH]ccc6c45)CC3)COC2)cc1 [compound 308, N-{[trans-4-(7H-pyrrolo[3,2-e][1,2,3]triazolo[1,5-c]pyrimidin-1-yl)cyclohexyl]methyl}-3-(4-chlorophenyl)oxetan-3-amine] | 0.0024 | 0.012 | 0.79 |  |  |  |  | 
5 | 0.52 | COc1ccc(C(O)(CN[C@H]2CC[C@H](c3nnn4cnc5[nH]ccc5c34)CC2)C(F)(F)F)cc1OC (stereo partly drawn) [390b, 3-{[trans-4-(7H-pyrrolo[3,2-e][1,2,3]triazolo[1,5-c]pyrimidin-1-yl)cyclohexyl]amino}-2-(3,4-dimethoxyphenyl)-1,1,1-trifluoropropan-2-ol] | 0.0024 | 0.089 | 0.36 |  |  |  |  | 
6 |  | FC(F)(Br)CNC[C@H]1CC[C@H](c2nnn3cnc4[nH]ccc4c23)CC1 [compound 269, N-{[trans-4-(7H-pyrrolo[3,2-e][1,2,3]triazolo[1,5-c]pyrimidin-1-yl)cyclohexyl]methyl}-2-bromo-2,2-difluoroethanamine] | 0.0013 | 0.012 | 0.1 |  |  |  |  | 0.057
7 | 0.43 | Fc1cc(C(F)(F)F)cc(F)c1CN1CCC(c2nnn3cnc4[nH]ccc4c23)CC1 [compound 224, 1-{1-[2,6-difluoro-4-(trifluoromethyl)benzyl]piperidin-4-yl}-7H-pyrrolo[3,2-e][1,2,3]triazolo[1,5-c]pyrimidine] | 0.002 | 0.012 | 0.95 |  |  |  |  | 
8 |  | c1ccc(CNC[C@H]2CC[C@H](c3nnn4cnc5[nH]ccc5c34)CC2)cc1 [compound 193, 1-[trans-4-(7H-pyrrolo[3,2-e][1,2,3]triazolo[1,5-c]pyrimidin-1-yl)cyclohexyl]-N-benzylmethanamine] |  |  |  | 0.0053 | 0.041 | 0.28 | 0.0055 | 
9 | 0.22 | OC12CC3CC(C1)CC(c1nnn4cnc5[nH]ccc5c14)(C3)C2 [compound 445, 3-(7H-Pyrrolo[3,2-e][1,2,3]triazolo[1,5-c]pyrimidin-1-yl)adamantan-1-ol] | 0.031 | 0.13 | 0.052 |  |  |  |  | 
10 | 0.28 | N#CCN1CCC(c2nnn3cnc4[nH]ccc4c23)CC1 [compound 246, 2-[4-(7H-pyrrolo[3,2-e][1,2,3]triazolo[1,5-c]pyrimidin-1-yl)piperidin-1-yl]acetonitrile] | 0.0053 | 0.019 | 0.14 |  |  |  |  | 
11 |  | N#CC1CCN(C[C@H]2CC[C@H](c3nnn4cnc5[nH]ccc5c34)CC2)CC1 [compound 89] |  |  |  | 0.025 | 0.2 | > 1 | 0.61 | 
12 |  | Fc1cc(Cl)ccc1CN1CCC(c2nnn3cnc4[nH]ccc4c23)CC1 [compound 158] |  |  |  | 0.0007 | 0.0044 | 0.059 | 0.097 | 
13 |  | c1ccc(CCCN[C@H]2CC[C@@H](c3nnn4cnc5[nH]ccc5c34)CC2)cc1 [136a] |  |  |  | 0.14 | > 1 | > 1 | > 1 | 
14 |  | CN(C)[C@H]1CCN(C[C@H]2CC[C@H](c3nnn4cnc5[nH]ccc5c34)CC2)C1 [compound 181, (S)-1-{[trans-4-(7H-pyrrolo[3,2-e][1,2,3]triazolo[1,5-c]pyrimidin-1-yl)cyclohexyl]methyl}-N,N-dimethylpyrrolidin-3-amine] |  |  |  | 0.024 | 0.13 | > 1 | 0.49 | 
15 |  | c1cc2c(ncn3nnc([C@H]4CC[C@@H](NN5CCOCC5)CC4)c23)[nH]1 [139a] |  |  |  | 0.26 | 0.4 | 0.43 | > 1 | 
16 | 0.99 | FC(F)(F)CCNC[C@H]1CC[C@H](c2nnn3cnc4[nH]ccc4c23)CC1 [compound 256, N-{[trans-4-(7H-pyrrolo[3,2-e][1,2,3]triazolo[1,5-c]pyrimidin-1-yl)cyclohexyl]methyl}-3,3,3-trifluoropropan-1-amine] | 0.015 | 0.062 | 0.27 |  |  |  |  | 
17 |  | Brc1cc(CN2CCC(c3nnn4cnc5[nH]ccc5c34)CC2)sc1Br [compound 233, 1-{1-[(4,5-dibromothiophen-2-yl)methyl]piperidin-4-yl}-7H-pyrrolo[3,2-e][1,2,3]triazolo[1,5-c]pyrimidine] | 0.021 | 0.071 | > 1 |  |  |  |  | > 1

Row | SMILES | IC50 (JAK3; ATP 100 μM) [µM] | IC50 (JAK1) [µM] | IC50 (JAK2) [µM] | IC50 (Tyk2) [µM] | IC50 (JAK1; Table^a 154) [µM] | IC50 (JAK2; Table^a 154) [µM] | IC50 (JAK3; ATP 100 μM, Table^a 154) [µM] | IC50 (Tyk2; Table^a 154) [µM] | IC50 (JAK3) [µM]
18 | O=C(NCCc1ccc(Cl)cc1)[C@H]1CC[C@H](c2nnn3cnc4[nH]ccc4c23)CC1 [compound 352, trans-N-(4-chlorophenethyl)-4-(7H-pyrrolo[3,2-e][1,2,3]triazolo[1,5-c]pyrimidin-1-yl)cyclohexanecarboxamide] | > 1 | 0.005 | 0.029 | > 1 |  |  |  |  | 
19 | FC(F)Oc1ccc(CN2CCC(c3nnn4cnc5[nH]ccc5c34)CC2)cc1 [compound 220, 1-{1-[4-(difluoromethoxy)benzyl]piperidin-4-yl}-7H-pyrrolo[3,2-e][1,2,3]triazolo[1,5-c]pyrimidine] | 0.62 | 0.013 | 0.086 | > 1 |  |  |  |  | 
20 | N#CCc1ccc(NC[C@H]2CC[C@H](c3nnn4cnc5[nH]ccc5c34)CC2)cc1 [compound 264, 2-[4-({[trans-4-(7H-pyrrolo[3,2-e][1,2,3]triazolo[1,5-c]pyrimidin-1-yl)cyclohexyl]methyl}amino)phenyl]acetonitrile] | > 1 | 0.011 | 0.032 | > 1 |  |  |  |  | 
21 | c1cc2c(ncn3nnc(C4CCN(Cc5cscn5)CC4)c23)[nH]1 [compound 240, 4-{[4-(7H-pyrrolo[3,2-e][1,2,3]triazolo[1,5-c]pyrimidin-1-yl)piperidin-1-yl]methyl}thiazole] | 0.6 | 0.039 | 0.11 | > 1 |  |  |  |  | 
22 | CC(C)(C)OC(=O)N1CCC(CNC[C@H]2CC[C@H](c3nnn4cnc5[nH]ccc5c34)CC2)CC1 [compound 335, tert-butyl 4-[({[trans-4-(7H-pyrrolo[3,2-e][1,2,3]triazolo[1,5-c]pyrimidin-1-yl)cyclohexyl]methyl}amino)methyl]piperidine-1-carboxylate] | > 1 | 0.029 | 0.29 | 0.71 |  |  |  |  | 
